Laboratory results published in patent US8207176B2 (Glaxo Group Limited, priority 2005, dated 2012).

Assays:
[1] = target: T1, Recombinant human p38α (MKK6-activated) (Homo sapiens, UniProt Q16539); assay: Time-resolved fluorescence resonance energy transfer (TR-FRET) kinase assay (standard or low volume); assay type: biochemical; design: key: Compounds are considered active in this assay if they demonstrate a pIC50 of greater than 4.6 up to about a pIC50 of greater than 10.0; settings: MKK6-activated p38α 100 pM, GST-ATF2 400 nM, 120 minutes at room temperature; either assay format
T1 construct: His; made in house
T1 sequence (Q16539 whole entry): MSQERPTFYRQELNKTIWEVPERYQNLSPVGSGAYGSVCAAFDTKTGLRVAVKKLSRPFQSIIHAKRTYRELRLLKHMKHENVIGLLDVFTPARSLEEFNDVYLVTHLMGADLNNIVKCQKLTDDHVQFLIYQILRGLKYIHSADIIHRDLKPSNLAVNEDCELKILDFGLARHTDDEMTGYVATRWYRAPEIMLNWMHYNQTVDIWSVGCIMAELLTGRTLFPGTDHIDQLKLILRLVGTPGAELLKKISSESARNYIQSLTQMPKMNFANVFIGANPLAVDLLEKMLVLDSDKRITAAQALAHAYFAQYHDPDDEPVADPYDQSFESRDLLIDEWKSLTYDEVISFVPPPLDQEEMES
Experimental: It is noted that there are two assay formats shown above for the Fluorescence anisotropy kinase binding assay. The only difference between these two assays is the volume used and the plate type. […] The results described herein may have been performed in either assay format and are not differentiated as to which. […] TR-FRET Assay Time-Resolved Fluorescence Resonance Energy Transfer Kinase Standard Assay Recombinant human p38α was expressed as a His-tagged protein. To activate this protein, 3 μM unactivated p38α was incubated in 200 mM Hepes pH 7.4, 625 mM NaCl, 1 mM DTT with 27 nM active MKK6 (Upstate), 1 mM ATP and 10 mM MgCl2 The activity of the MKK6-activated p38α was assessed using a time-resolved fluorescence resonance energy transfer (TR-FRET) assay. Biotinylated-GST-ATF2 (residues 19-96, 400 nM final), ATP ([…]) and MgCl2 (5 mM final) in assay buffer (40 mM HEPES pH 7.4, 1 mM DTT) were added to wells containing 1 ul of various concentrations of compound or DMSO vehicle (3% final) in NUNC 384 well black plate. The reaction was initiated by the addition of MKK6-activated p38 (100 pM final) to give a total volume of 30 ul. The reaction was incubated for 120 minutes at room temperature, then terminated by the addition of 15 μl of 100 mM EDTA pH 7.4. Detection reagent (15 μl) in buffer (100 mM HEPES pH 7.4, 150 mM NaCl, 0.1% w/v BSA, 1 mM DTT) containing antiphosphothreonine-ATF2-71 polyclonal antibody (Cell Signalling Technology, Beverly Mass., USA) labelled with W-1024 europium chelate (Wallac OY, Turku, Finland), and APC-labelled streptavidin (Prozyme, San Leandro, Calif., USA) was added and the reaction was further incubated for 60 minutes at room temperature. The degree of phosphorylation of GST-ATF2 was measured using a Packard Discovery plate reader (Perkin-Elmer Life Sciences, Pangbourne, UK) as a ratio of specific 665 nm energy transfer signal to reference europium 620 nm signal. Time-Resolved Fluorescence Resonance Energy Transfer Kinase Low Volume Assay Recombinant human p38α was expressed as a His-tagged protein. To activate this protein, 3 μM unactivated p38α was incubated in 200 mM Hepes pH7.4, 625 mM NaCl, 1 mM DTT with 27 nM active MKK6 (Upstate), 1 mM ATP and 10 mM MgCl2 The activity of the MKK6-activated p38α was assessed using a time-resolved fluorescence resonance energy transfer (TR-FRET) assay. Biotinylated-GST-ATF2 (residues 19-96, 400 nM final), ATP (125 μM final) and MgCl2 ([…]) in assay buffer (40 mM HEPES pH 7.4, 1 mM DTT) were added to wells containing 0.1 μl of various concentrations of compound or DMSO vehicle (1.7% final) in Greiner low volume 384 well black plate. The reaction was initiated by the addition of MKK6-activated p38α (100 pM final) to give a total volume of 6 μl. The reaction was incubated for 120 minutes at room temperature, then terminated by the addition of 3 μl of detection reagent in buffer (100 mM HEPES pH 7.4, 150 mM NaCl, 0.1% w/v BSA, 1 mM DTT, 100 mM EDTA) containing antiphosphothreonine-ATF2-71 polyclonal antibody (Cell Signalling Technology, Beverly Mass., USA) labelled with W-1024 europium chelate (Wallac OY, Turku, Finland), and APC-labelled streptavidin (Prozyme, San Leandro, Calif., USA). The reaction was further incubated for 60 minutes at room temperature. The degree of phosphorylation of GST-ATF2 was measured using a BMG Rubystar plate reader (BMG, UK) as a ratio of specific 665 nm energy transfer signal to reference europium 620 nm signal. It is noted that there are two assay formats shown above for the Time-resolved fluorescence resonance energy transfer kinase assay. The only difference between these two assays is the volume used and the plate type. […] The results described herein may have been performed in either assay format and are not differentiated as to which. […] For purposes herein the HTRF assay and the Fluorescence anisotropy kinase binding assay: […]

[2] = system: influx of neutrophils to the lung in LPS-challenged rats; assay: Rat LPS neutrophilia model; assay type: in vivo; settings: intratracheal, LPS aerosol 100 ug/ml 15 min, lavage 4 hours later, in at least one of the range of conditions tested, significant p<0.05, nonsignificant p>0.05
Method in brief: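 Compound was given intratracheally (200 ul, suspension or dry powder) 15 min–24 hours before a 15 min aerosol of LPS (100 ug/ml). Bronchoalveolar lavage was taken 4 hours after challenge for differential cell counts. Values are % inhibition of neutrophils versus no-compound controls at a given concentration and pretreat time.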

[3] = system: synthesis of IL-6, IL-8, GM-CSF, RANTES and COX-2; settings: a number of different cell types; cited from earlier work
[4] = system: TGF-β-induced increases in fibronectin and thrombospondin; settings: cited from earlier work

Cc1c(F)cc(C(=O)NC2CC2)cc1-c1nc(NC(CO)CO)nc2c1ccc(=O)n2-c1c(F)cccc1F [18(e)]
pIC50, reported as active [1]: active
melting point: 214.2 to 217.5 °C

Cc1ccc(C(=O)NC2CC2)cc1-c1nc(NC2CC(C)(C)NC(C)(C)C2)nc2c1ccc(=O)n2-c1c(F)cccc1F [21(c)]
melting point: 326.3 to 327.9 °C

Cc1ccc(C(=O)NCc2ccccc2)cc1-c1nc(NCc2ncc[nH]2)nc2c1ccc(=O)n2-c1c(F)cccc1F [116(c), 3-{8-(2,6-difluorophenyl)-2-[(1H-imidazol-2-ylmethyl)amino]-7-oxo-7,8-dihydropyrido[2,3-d]pyrimidin-4-yl}-4-methyl-N-(phenylmethyl)benzamide]
melting point: 185 to 190 °C (dec.)

CCCNCCNc1nc(-c2cc(C(=O)NC3CC3)ccc2C)c2ccc(=O)n(-c3c(F)cccc3F)c2n1 [Example 24, N-cyclopropyl-3-(8-(2,6-difluorophenyl)-7-oxo-2-{[2-(propylamino)ethyl]amino}-7,8-dihydropyrido[2,3-d]pyrimidin-4-yl)-4-methylbenzamide]
inhibition of neutrophilia (neutrophil levels in lung lavage relative to no compound controls) [2]: statistically nonsignificant inhibition
melting point: 120 to 134 °C

Cc1ccc(C(=O)NC2CC2)cc1-c1nc(NCCN(C)C)nc2c1ccc(=O)n2-c1c(F)cccc1F [Example 25]
inhibition of neutrophilia (neutrophil levels in lung lavage relative to no compound controls) [2]: statistically nonsignificant inhibition
melting point: 214.7 to 217.5 °C

Cc1ccc(NC(=O)c2ccsc2)cc1-c1nc(N2CCC(N)CC2)nc2c1ccc(=O)n2-c1c(F)cccc1F [Example 32, N-{3-[2-(4-amino-1-piperidinyl)-8-(2,6-difluorophenyl)-7-oxo-7,8-dihydropyrido[2,3-d]pyrimidin-4-yl]-4-methylphenyl}-3-thiophenecarboxamide]
inhibition of neutrophilia (neutrophil levels in lung lavage relative to no compound controls) [2]: statistically nonsignificant inhibition
melting point: 183.8 to 187.9 °C

CCCNC(=O)c1ccc(C)c(-c2nc(N(C)CCCN(C)C)nc3c2ccc(=O)n3-c2c(F)cccc2F)c1 [Example 104, 3-{8-(2,6-difluorophenyl)-2-[[3-(dimethylamino)propyl](methyl)amino]-7-oxo-7,8-dihydropyrido[2,3-d]pyrimidin-4-yl}-4-methyl-N-propylbenzamide]
inhibition of neutrophilia (neutrophil levels in lung lavage relative to no compound controls) [2]: statistically significant inhibition
melting point: 104 to 109 °C

CCCNC(=O)c1ccc(C)c(-c2nc(NCCN(C)C)nc3c2ccc(=O)n3-c2c(F)cccc2F)c1 [Example 105, 3-(8-(2,6-difluorophenyl)-2-{[2-(dimethylamino)ethyl]amino}-7-oxo-7,8-dihydropyrido[2,3-d]pyrimidin-4-yl)-4-methyl-N-propylbenzamide]
inhibition of neutrophilia (neutrophil levels in lung lavage relative to no compound controls) [2]: statistically significant inhibition
melting point: 139 to 142 °C

CCCNC(=O)c1ccc(C)c(-c2nc(NCCN(C)C(=O)OC(C)(C)C)nc3c2ccc(=O)n3-c2c(F)cccc2F)c1 [Example 106, 1,1-dimethylethyl {2-[(8-(2,6-difluorophenyl)-4-{2-methyl-5-[(propylamino)carbonyl]phenyl}-7-oxo-7,8-dihydro-pyrido[2,3-d]pyrimidin-2-yl)amino]ethyl}methylcarbamate]
melting point: 115 to 118 °C

Cc1ccc(C(=O)Nc2nccs2)cc1-c1nc(NCCN(C)C)nc2c1ccc(=O)n2-c1c(F)cccc1F [Example 109, 3-(8-(2,6-difluorophenyl)-2-{[2-(dimethylamino)ethyl]amino}-7-oxo-7,8-dihydropyrido[2,3-d]pyrimidin-4-yl)-4-methyl-N-1,3-thiazol-2-ylbenzamide]
pIC50, reported as active [1]: active
inhibition of neutrophilia (neutrophil levels in lung lavage relative to no compound controls) [2]: statistically significant inhibition

Cc1ccc(C(=O)Nc2ccc(F)cc2)cc1-c1nc(NCCN(C)C)nc2c1ccc(=O)n2-c1c(F)cccc1F [Example 112, 3-(8-(2,6-difluorophenyl)-2-{[2-(dimethylamino)ethyl]amino}-7-oxo-7,8-dihydropyrido[2,3-d]pyrimidin-4-yl)-N-(4-fluorophenyl)-4-methylbenzamide]
pIC50, reported as active [1]: active
inhibition of neutrophilia (neutrophil levels in lung lavage relative to no compound controls) [2]: statistically nonsignificant inhibition

Cc1ccc(C(=O)NC(C)C)cc1-c1nc(NCCN(C)C)nc2c1ccc(=O)n2-c1c(F)cccc1F [Example 117, 3-(8-(2,6-difluorophenyl)-2-{[2-(dimethylamino)ethyl]amino}-7-oxo-7,8-dihydropyrido[2,3-d]pyrimidin-4-yl)-4-methyl-N-(1-methylethyl)benzamide]
pIC50, reported as active [1]: active
inhibition of neutrophilia (neutrophil levels in lung lavage relative to no compound controls) [2]: statistically significant inhibition

CCC(C)NC(=O)c1ccc(C)c(-c2nc(NCCCN(CC)CC)nc3c2ccc(=O)n3-c2c(F)cccc2F)c1 (centres unmarked) [Example 162, 3-[2-{[3-(diethylamino)propyl]amino}-8-(2,6-difluorophenyl)-7-oxo-7,8-dihydropyrido[2,3-d]pyrimidin-4-yl]-4-methyl-N-(1-methylpropyl)benzamide]
pIC50, reported as active [1]: active
inhibition of neutrophilia (neutrophil levels in lung lavage relative to no compound controls) [2]: statistically nonsignificant inhibition

C[S+]([O-])c1ccc(-c2nc(-c3ccncc3)c(-c3ccc(F)cc3)[nH]2)cc1 (centres unmarked) [SB-203580]
decreasing the synthesis of pro-inflammatory proteins including IL-6, IL-8, GM-CSF, RANTES and COX-2 [3]: effective

COc1nccc(-c2c(-c3ccc(F)cc3)ncn2C2CCNCC2)n1 [SB-242235]
effect on TGF-β-induced increases in fibronectin and thrombospondin [4]: inhibited

Fc1ccc(-c2nc3n(c2-c2ccncc2)CCS3)cc1 [SK&F 86002]
decreasing the synthesis of pro-inflammatory proteins including IL-6, IL-8, GM-CSF, RANTES and COX-2 [3]: effective
